Laboratory results: US5530138A, “Compounds and use thereof” (priority 1993, dated 1996)

System: acetylchotine esterass
Experiment: not given
Details: background; cited from earlier work
For Nc1c2c(nc3ccccc13)CCCC2 [THA, 1,2,3,4tetrahydro-9-aminoacridine], the “inhibition to acetylcholine esterase” value is given as “its action cannot be said as powerful”.

Target: T1, binding of 3H-pirenzepine to brain homogenate of rat (Rattus norvegicus, UniProt P08482)
T1 construct: from tissue; host or cells: brain of male SD rats, cerebellum removed; supernatant of 1000×g, re-homogenized
T1 sequence (P08482 1-460): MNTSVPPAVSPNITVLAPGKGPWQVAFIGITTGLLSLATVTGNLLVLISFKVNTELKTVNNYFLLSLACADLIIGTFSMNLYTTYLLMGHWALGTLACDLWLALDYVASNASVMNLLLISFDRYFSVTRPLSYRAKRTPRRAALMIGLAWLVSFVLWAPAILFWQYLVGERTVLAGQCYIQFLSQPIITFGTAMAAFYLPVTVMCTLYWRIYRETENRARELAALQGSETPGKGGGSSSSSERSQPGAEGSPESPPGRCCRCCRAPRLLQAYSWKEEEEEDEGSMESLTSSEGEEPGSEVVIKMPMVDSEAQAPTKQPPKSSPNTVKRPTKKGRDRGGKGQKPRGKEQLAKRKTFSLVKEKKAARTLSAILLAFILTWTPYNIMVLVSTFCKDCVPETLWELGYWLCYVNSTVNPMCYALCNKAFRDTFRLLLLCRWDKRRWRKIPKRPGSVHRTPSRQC
Experiment: Inhibition against binding of 3H-pirenzepine to brain homogenate of rat
Details: 2.0 nM 3H-pirenzepine; rat brain homogenate without cerebellum; 550 mM phosphate buffer pH 7.4; 60 minutes at room temperature; read-out: 50% inhibition (IC50) against binding of 3H-pirenzepine to brain homogenate
Protocol: (Inhibition against binding of 3H-pirenzepine to brain homogenate of rat)
A brain homogenate of rat was prepared in accordance with the method described by Yamanura and Synder ["Proc. Natr. Acad. Sci. USA", Vol. 71, pages 1725-1729 (1974)]. Namely, SD male rats were killed by decapitation to exentrate each brain. From the brains, each cerebellum was removed and 0.32 M aqueous sucrose solution in 10-folds by volume was added under ice-cooling condition to homogenize the same by a Potter-Elvehjem type glass homogenizer. The resulting homogenate was centrifuged for 10 minutes (1000×g) to obtain a supernatant by removing a precipitate, which supernatant was further homogenized by a homogenizer of "Polytron" to obtain a fraction to be used as a brain homogenate.
Tests were carried out according to the method described by Flynn and Mash ["J. Pharm. Exp. Ther.", Vol. 250, pages 573-581 (1989). Namely, to the brain homogenate (0.035 ml, protein content: 0.6 mg), 550 mM phosphate buffer (pH 7.4, 1 ml) containing 2.0 nM ^3 H-pirenzepine and a Test or Control compound (1 ml, if the test or control compound is solid form, it is dissolved by the 550 mM phosphate buffer) were added to cause a reaction for 60 minutes at room temperature. Then, an ice-cooled buffer (3.0 ml) same with the above was added to the reaction mixture. Thereafter, the mixture was filtrated by a Whattman GF/B filter which was previously dipped in 0.1% polyethyleneimine solution for 60 minutes. The filter was washed twice by the buffer solution (each 3.0 ml) and an emulsion scintillatot for measuring luminescence by a scintillation counter. A 50% inhibition (IC50)of the test or control compound against binding of 3H-pirenzepine to brain homogenate was calculated.
Work on CCN(CC12CCCN1CCC2)c1ccc([N+](=O)[O-])c2ccccc12 [Example 12, 1-[N-(1-azabicyclo[3.3.0]octan-5-yl)methyl-N-ethylamino]-4-nitronaphthalene] yielded an IC50 of 200 nM. Work on CN(CCC12CCCN1CCC2)c1ccccc1[N+](=O)[O-] [Example 25, N-[2-(1-Azabicyclo[3.3.0]octan-5-yl)ethyl]-N-methyl-2-nitroaniline] yielded an IC50 of 200 nM. In the case of O=[N+]([O-])c1ccccc1NCCC12CCCN1CCC2 [Example 23, N-[2-(1-Azabicyclo[3.3.0]octan-5-yl)ethyl]-2-nitroaniline], the IC50 is reported as 100 nM. Work on COc1ccc(N(C)CC23CCCN2CCC3)c2ccccc12 [Example 3, 1-[N-(1-Azabicyclo[3.3.0]octan-5-yl)methyl-N-methylamino]-4-methoxynaphthalene] yielded an IC50 of 90 nM. CN(CC12CCCN1CCC2)c1ccccc1[N+](=O)[O-] [Example 17, N-(1-azabicyclo[3.3.0]octan-5-yl)methyl-N-methyl-2-nitroaniline] gave an IC50 of 200 nM. Clc1ccccc1NCCC12CCCN1CCC2 [Example 30, N-[2-(1-Azabicyclo[3.3.0]octan-5-yl)ethyl]-2-chloroaniline] gave an IC50 of 430 nM. For CN(CCC12CCCN1CCC2)c1ccccc1C#N [Example 29, 2-{[2-(1-Azabicyclo[3.3.0]octan-5-yl)ethyl]methylamino}-benzonitrile], the IC50 was 240 nM. Compound CN(CC12CCCN1CCC2)c1ccccc1-c1ccccc1 [Example 20, N-(1-Azabicyclo[3.3.0]octan-5-yl)methyl-N-methyl-2-phenylaniline] has an IC50 of 100 nM. Work on C=C1CC2(CCN(C)CC2)OC1C (stereo not drawn) [2,8-Dimethyl-3-methylene-1-oxa-8-azabicyclo-[4.5]decane, reference compound] yielded an IC50 of 23600 nM. In the case of CN(CC12CCCN1CCC2)c1ccc(F)c2ccccc12 [Example 8, 1-[N-(1-Azabicyclo[3.3.0]octan-5-yl)methyl-N-methylamino]-4-fluoronaphthalene], the IC50 is reported as 20 nM. For N#Cc1ccccc1NCC12CCCN1CCC2 [Example 34, 2-[(1-Azabicyclo[3.3.0]octan-5-yl)methylamino]benzonitrile], the IC50 was 550 nM. Fc1ccccc1NCCC12CCCN1CCC2 [Example 31, N-[2-(1-Azabicyclo[3.3.0]octan-5-yl)ethyl]-2-fluoroaniline] showed an IC50 of 1590 nM. With O=[N+]([O-])c1cc(F)ccc1NCCC12CCCN1CCC2 [Example 32, N-[2-(1-Azabicyclo[3.3.0]octan-5-yl)ethyl]-4-fluoro-2-nitroaniline] the IC50 was 690 nM. For N#Cc1ccccc1NCCC12CCCN1CCC2 [Example 27, 2-[2-(1-Azabicyclo[3.3.0]octan-5-yl)ethylamino]benzonitrile], the IC50 was 320 nM. With CN(CC12CCCN1CCC2)c1cccc2ccccc12 [Example 6, 1-[N-(1-Azabicyclo[3.3.0]octan-5-yl)methyl-N-methylamino]-naphthalene] the IC50 was 30 nM. With CN(CC12CCCN1CCC2)c1ccc(Cl)c2ccccc12 [Example 1, 1-[N-(1-Azabicyclo[3.3.0]octan-5-yl)methyl-N-methylamino]-4-chloronaphthalene] the IC50 was 10 nM. Compound O=CN(CC12CCCN1CCC2)c1ccccc1 [Example 13, N-(1-azabicyclo[3.3.0]octan-5-yl)methyl-N-formylaniline] has an IC50 of 300 nM. O=[N+]([O-])c1ccccc1NCCC12CCCN1CCC2 [Example 36, N-[2-(1-Azabicyclo[3.3.0]octan-5-yl)ethyl]-2-nitroaniline(fumarate)] gave an IC50 of 90 nM. N#Cc1ccc(NCCC23CCCN2CCC3)cc1 [Example 28, 4-[2-(1-Azabicyclo[3.3.0]octan-5-yl)ethylamino]-benzonitrile] gave an IC50 of 4570 nM.

Same assay, conditions: read-out: 50% inhibition (IC50) against binding of 3H-pirenzepine to brain homogenate; 2.0 nM 3H-pirenzepine; rat brain homogenate without cerebellum; 550 mM phosphate buffer pH 7.4; 60 minutes at room temperature
Work on NC(=O)c1ccccc1NCCC12CCCN1CCC2 [Example 33, 2-{[2-(1-Azabicyclo[3.3.0]octan-5-yl)ethyl]amino}benzamide] yielded an IC50 of 1110 nM.
